Experimental data from ChEMBL document CHEMBL1201862, “PubChem BioAssay data set” (2004).
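Values below derive from 48-hour exposures of cells grown in 96-well plates, with endpoints linearly interpolated between the two concentrations bracketing the appropriate inhibition level. The concentration for 50% growth inhibition is given as GI50.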 The source made the active and inactive calls. No stated cut-off is given here; in the data, active = GI50 up to about 1.1 µM and inactive = higher.

Columns and labels:
Assay in all cases: NCI anticancer screen, dose series, 48 h
[1] = test system: Hs-578T
[2] = test system: EKVX
[3] = test system: OVCAR-8
[4] = test system: MDA-N
[5] = test system: MDA-MB-231
[6] = test system: SF-268
[7] = test system: M19-MEL
[8] = test system: UO-31
[9] = test system: A549
[10] = test system: OVCAR-3
[11] = test system: HCC 2998
[12] = test system: IGROV-1
[13] = test system: OVCAR-4
[14] = test system: SK-MEL-2
[15] = test system: NCI-H460
[16] = test system: DLD-1
[17] = test system: TK-10
[18] = test system: HT-29
[19] = test system: RXF 393
[20] = test system: COLO 205
[21] = test system: KM12
[22] = test system: U-251
[23] = test system: HL-60
[24] = test system: LOX IMVI
[25] = test system: SK-MEL-5
[26] = test system: CCRF-CEM
[27] = test system: LXFL 529
[28] = test system: KM-20L2
[29] = test system: DMS-114
[30] = test system: A498
[31] = test system: HOP-62
[32] = test system: UACC-62
[33] = test system: SNB-75
[34] = test system: SNB-19
[35] = test system: SF-295
[36] = test system: NCI-H23
[37] = test system: MDA-MB-435
[38] = test system: SF-539
[39] = test system: SN12C
[40] = test system: DU-145
[41] = test system: CAKI-1
[42] = test system: T47D
[43] = test system: DMS-273
[44] = test system: Malme-3M
[45] = test system: HCT-116
[46] = test system: K562
[47] = test system: BT-549
[48] = test system: SK-OV-3
[49] = test system: HOP-18
[50] = test system: ACHN
[51] = test system: NCI-H226
[52] = test system: SW-620
[53] = test system: XF498
[54] = test system: NCI/ADR-RES
[55] = test system: MOLT-4
[56] = test system: UACC-257
[57] = test system: SR
[58] = test system: OVCAR-5
[59] = test system: MCF7
[60] = test system: PC-3
[61] = test system: M14
[62] = test system: SK-MEL-28
[63] = test system: RPMI-8226
[64] = test system: 786-0
[65] = test system: HOP-92
[66] = test system: NCI-H522
[67] = test system: HCT-15
[68] = test system: SNB-78

## OCc1ccc(-c2ccc(-c3ccc(CO)s3)o2)s1
[1]
  GI50: 27.7 µM (inactive)
[2]
  GI50: 26.3 µM (inactive)
[3]
  GI50: 12.1 µM (inactive)
[4]
  GI50: 5.06 µM (inactive)
[5]
  GI50: 41.4 µM (inactive)
[6]
  GI50: 49 µM (inactive)
[7]
  GI50: 41.7 µM (inactive)
[8]
  GI50: 35.5 µM (inactive)
[9]
  GI50: 2.36 µM (inactive)
[10]
  GI50: 0.0703 µM (active)
[11]
  GI50: 0.394 µM (active)
[12]
  GI50: 0.0373 µM (active)
[13]
  GI50: 0.212 µM (active)
[14]
  GI50: 23.9 µM (inactive)
[15]
  GI50: 0.0557 µM (active)
[16]
  GI50: 6.05 µM (inactive)
[17]
  GI50: 0.0249 µM (active)
[18]
  GI50: 0.432 µM (active)
[19]
  GI50: 0.285 µM (active)
[20]
  GI50: 0.335 µM (active)
[21]
  GI50: 20.7 µM (inactive)
[22]
  GI50: 0.0646 µM (active)
[23]
  GI50: 3.56 µM (inactive)
[24]
  GI50: 21.8 µM (inactive)
[25]
  GI50: 20.7 µM (inactive)
[26]
  GI50: 2.59 µM (inactive)
[27]
  GI50: 0.0158 µM (active)
[28]
  GI50: 0.0405 µM (active)
[29]
  GI50: 13.4 µM (inactive)
[30]
  GI50: 0.0151 µM (active)
[31]
  GI50: 0.103 µM (active)
[32]
  GI50: 0.0142 µM (active)
[33]
  GI50: 36.6 µM (inactive)
[34]
  GI50: 28.8 µM (inactive)
[35]
  GI50: 7.4 µM (inactive)
[36]
  GI50: 17.9 µM (inactive)
[37]
  GI50: 4.05 µM (inactive)
[38]
  GI50: 14.2 µM (inactive)
[39]
  GI50: 5.13 µM (inactive)
[40]
  GI50: 6.07 µM (inactive)
[41]
  GI50: 0.0116 µM (active)
[42]
  GI50: 0.31 µM (active)
[43]
  GI50: 1.13 µM (inactive)
[44]
  GI50: 57 µM (inactive)
[45]
  GI50: 0.0622 µM (active)
[46]
  GI50: 0.596 µM (active)
[47]
  GI50: 4.04 µM (inactive)
[48]
  GI50: 7.06 µM (inactive)
[49]
  GI50: 0.341 µM (active)
[50]
  GI50: 11.3 µM (inactive)
[51]
  GI50: 0.0375 µM (active)
[52]
  GI50: 0.224 µM (active)
[53]
  GI50: 0.0562 µM (active)
[54]
  GI50: 13.2 µM (inactive)
[55]
  GI50: 3.21 µM (inactive)
[56]
  GI50: 0.0254 µM (active)
[57]
  GI50: 3.6 µM (inactive)
[58]
  GI50: 0.02 µM (active)
[59]
  GI50: 0.0336 µM (active)
[60]
  GI50: 44.5 µM (inactive)
[61]
  GI50: 30 µM (inactive)
[62]
  GI50: 42.7 µM (inactive)
[63]
  GI50: 2.99 µM (inactive)
[64]
  GI50: 4.6 µM (inactive)
[65]
  GI50: 32.6 µM (inactive)
[66]
  GI50: 29.2 µM (inactive)
[67]
  GI50: 8.09 µM

## O=C(CC(=O)c1ccccc1)C(=O)NC12CC3CC(CC(C3)C1)C2
[2]
  GI50: > 100 µM (inactive)
[3]
  GI50: > 100 µM (inactive)
[6]
  GI50: > 91.4 µM (inactive)
[7]
  GI50: > 100 µM (inactive)
[8]
  GI50: > 100 µM (inactive)
[9]
  GI50: > 54.1 µM (inactive)
[10]
  GI50: > 100 µM (inactive)
[11]
  GI50: > 100 µM (inactive)
[12]
  GI50: > 100 µM (inactive)
[13]
  GI50: > 100 µM (inactive)
[14]
  GI50: > 100 µM (inactive)
[15]
  GI50: > 40.7 µM (inactive)
[16]
  GI50: > 47.5 µM (inactive)
[17]
  GI50: > 100 µM (inactive)
[18]
  GI50: > 100 µM (inactive)
[19]
  GI50: > 31.9 µM (inactive)
[20]
  GI50: > 45 µM (inactive)
[21]
  GI50: > 100 µM (inactive)
[22]
  GI50: > 88.9 µM (inactive)
[23]
  GI50: > 48.5 µM (inactive)
[24]
  GI50: > 34.6 µM (inactive)
[25]
  GI50: > 100 µM (inactive)
[26]
  GI50: > 49.2 µM (inactive)
[27]
  GI50: > 100 µM (inactive)
[28]
  GI50: > 75.7 µM (inactive)
[29]
  GI50: > 42.4 µM (inactive)
[30]
  GI50: > 100 µM (inactive)
[31]
  GI50: > 100 µM (inactive)
[32]
  GI50: > 100 µM (inactive)
[33]
  GI50: > 69.7 µM (inactive)
[34]
  GI50: > 100 µM (inactive)
[35]
  GI50: > 100 µM (inactive)
[36]
  GI50: > 100 µM (inactive)
[38]
  GI50: > 100 µM (inactive)
[39]
  GI50: > 100 µM (inactive)
[41]
  GI50: > 100 µM (inactive)
[43]
  GI50: > 47 µM (inactive)
[44]
  GI50: > 100 µM (inactive)
[45]
  GI50: > 64.1 µM (inactive)
[46]
  GI50: > 56.9 µM (inactive)
[48]
  GI50: > 100 µM (inactive)
[49]
  GI50: > 100 µM (inactive)
[50]
  GI50: > 100 µM (inactive)
[51]
  GI50: > 100 µM (inactive)
[52]
  GI50: > 41.6 µM (inactive)
[53]
  GI50: > 100 µM (inactive)
[55]
  GI50: > 100 µM (inactive)
[56]
  GI50: > 100 µM (inactive)
[57]
  GI50: > 100 µM (inactive)
[58]
  GI50: > 100 µM (inactive)
[61]
  GI50: > 100 µM (inactive)
[62]
  GI50: > 100 µM (inactive)
[63]
  GI50: > 45.3 µM (inactive)
[64]
  GI50: > 56.2 µM (inactive)
[68]
  GI50: > 100 µM (inactive)
[65]
  GI50: > 100 µM (inactive)
[66]
  GI50: > 83.4 µM (inactive)
[67]
  GI50: > 37.8 µM
